Earlier results, collected in patent US20160176819A1, “ASYMMETRICALLY CHARGED NIR FLUOROPHORES” (Washington University, priority 2014, published 2016).
“And” between values parts separate entries of the source, which are not always exact repeats. Equal entries are not always repeated.

Assays:
[1] = ICG in DMSO, literature values; cited from earlier work
[2] = reference value; cited from earlier work

CC1(C)C(/C=C/C=C/C=C/C=C2\N(CCCCS(=O)(=O)O)c3ccc4ccccc4c3C2(C)C)=[N+](CCCCS(=O)(=O)[O-])c2ccc3ccccc3c21 [ICG, indocyanine green]
fluorescence quantum yield of the reference [1]: 0.12 and 0.22 | QY of the reference [2]: 23%
